Legend:
[1] = Lipophilicity (Log P) of the nicotinic ester of DHA; format: physicochemical
Description: (§1) It is a very lipophilic compound (Log P approximately 7), wherein the solubility at equilibrium in water is <1 μg/ml. It is thus particularly difficult to formulate for parenteral administration.

[2] = Solubility at equilibrium in water; format: physicochemical; conditions: thermodynamic from solid
Description: as §1

- logP [1]: ~7
- solubility [2]: < 1 µg/mL
Compound: CC/C=C\C/C=C\C/C=C\C/C=C\C/C=C\C/C=C\CCC(=O)OCc1cccnc1 [nicotinic ester of DHA, pyridin-3-ylmethyl-cis-4,7,10,13,16,19-docosahexaenoic acid]

From US8753652B2, “Pharmaceutical composition including a DHA ester to be administered parenterally” (Pierre Fabre Medicament, priority 2009, dated 2014)
